Reference: patent publication US20260250318A1, “COMPOSITIONS AND METHODS FOR CROSSING THE BLOOD BRAIN BARRIER” (VOYAGER THERAPEUTICS, INC., priority 2022, published 2026)

How the values were obtained:
Conditions in all cases: synthetic library passage 3, intravenous, relative to wild-type AAV9
[1] = system: brain, spinal cord, and DRG of the NHPs; assay: NGS fold enrichment of synthetic library (passage 3) in NHPs, first cross-species screen; type: in vivo, cynomolgus macaques (Macaca fascicularis)
Outline: (§1)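 Synthetic capsid library (passage 3) was given intravenously […] to NHPs aged 2-4 years and to BALB/c and C57Bl/6 mice (n=3 each, 6-8 weeks). After about 28 days in vivo, tissue RNA was RT-PCR amplified and NGS-sequenced; values are fold enrichment per variant relative to wild-type AAV9.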

brain [2] = assay: NGS fold enrichment of synthetic library (passage 3) in BALB/c mice, first cross-species screen; type: in vivo
Outline: as §1

brain [3] = assay: NGS fold enrichment of synthetic library (passage 3) in C57Bl/6 mice, first cross-species screen; type: in vivo
Outline: as §1

[4] = RNA from spinal cord of NHPs, NGS
[5] = RNA from brain of BALB/c mice, NGS
[6] = RNA from brain of C57Bl/6 mice, NGS

GSDQNQQTMSSTRT
Fold enrichment over AAV9 in the brain of NHPs ([1]; RNA NGS, brain of NHPs): 1.003 fold | Fold enrichment over AAV9 in the spinal cord of NHPs ([1]; RNA NGS, spinal cord of NHPs): 2.428 fold | Fold enrichment over AAV9 in the brain of Mice (BALB/c) (brain [2]; RNA NGS, brain of BALB/c mice): 0.835 fold | Fold enrichment over AAV9 in the brain of Mice (C57Bl/6) (brain [3]; RNA NGS, brain of C57Bl/6 mice): 1.306 fold

GSDQNQRLTSSMQT
Fold enrichment over AAV9 in the brain of NHPs ([1]; RNA NGS, brain of NHPs): 1.479 fold | Fold enrichment over AAV9 in the spinal cord of NHPs ([1]; RNA NGS, spinal cord of NHPs): 0.164 fold | Fold enrichment over AAV9 in the brain of Mice (BALB/c) (brain [2]; RNA NGS, brain of BALB/c mice): 0.670 fold | Fold enrichment over AAV9 in the brain of Mice (C57Bl/6) (brain [3]; RNA NGS, brain of C57Bl/6 mice): 0.875 fold

GSDQSKRGDSNQQT
Fold enrichment over AAV9 in the brain of NHPs ([1]; RNA from brain of NHPs, NGS): 1.225 fold | Fold enrichment over AAV9 in the spinal cord of NHPs [1, 4]: 0.639 fold | Fold enrichment over AAV9 in the brain of Mice (BALB/c) (brain [2]; [5]): 0.267 fold | Fold enrichment over AAV9 in the brain of Mice (C57Bl/6) (brain [3]; [6]): 0.479 fold

GSEQTRQRGQNQQT
Fold enrichment over AAV9 in the brain of NHPs ([1]; RNA from brain of NHPs, NGS): 1.333 fold | Fold enrichment over AAV9 in the spinal cord of NHPs [1, 4]: 2.172 fold | Fold enrichment over AAV9 in the brain of Mice (BALB/c) (brain [2]; [5]): 0.815 fold | Fold enrichment over AAV9 in the brain of Mice (C57Bl/6) (brain [3]; [6]): 0.574 fold

GSEQTRQSGQNQQT
Fold enrichment over AAV9 in the brain of NHPs ([1]; RNA from brain of NHPs, NGS): 1.321 fold | Fold enrichment over AAV9 in the spinal cord of NHPs [1, 4]: 0.514 fold | Fold enrichment over AAV9 in the brain of Mice (BALB/c) (brain [2]; [5]): 0.900 fold | Fold enrichment over AAV9 in the brain of Mice (C57Bl/6) (brain [3]; [6]): 0.734 fold

GSEYGHKSGQNQQT
Fold enrichment over AAV9 in the brain of NHPs ([1]; RNA NGS, brain of NHPs): 6.308 fold | Fold enrichment over AAV9 in the spinal cord of NHPs ([1]; RNA NGS, spinal cord of NHPs): 2.750 fold | Fold enrichment over AAV9 in the brain of Mice (BALB/c) (brain [2]; RNA NGS, brain of BALB/c mice): 5.332 fold | Fold enrichment over AAV9 in the brain of Mice (C57Bl/6) (brain [3]; RNA NGS, brain of C57Bl/6 mice): 5.198 fold

GSFSMGYGGQNQQT
Fold enrichment over AAV9 in the brain of NHPs ([1]; RNA from brain of NHPs, NGS): 1.393 fold | Fold enrichment over AAV9 in the spinal cord of NHPs [1, 4]: 18.476 fold | Fold enrichment over AAV9 in the brain of Mice (BALB/c) (brain [2]; [5]): 1.030 fold | Fold enrichment over AAV9 in the brain of Mice (C57Bl/6) (brain [3]; [6]): 1.908 fold

GSFSMHTHGQNQQT
Fold enrichment over AAV9 in the brain of NHPs ([1]; RNA NGS, brain of NHPs): 2.535 fold | Fold enrichment over AAV9 in the spinal cord of NHPs ([1]; RNA NGS, spinal cord of NHPs): 0.118 fold | Fold enrichment over AAV9 in the brain of Mice (BALB/c) (brain [2]; RNA NGS, brain of BALB/c mice): 0.693 fold | Fold enrichment over AAV9 in the brain of Mice (C57Bl/6) (brain [3]; RNA NGS, brain of C57Bl/6 mice): 1.027 fold

GSFYPSSTGQNQQT
Fold enrichment over AAV9 in the brain of NHPs ([1]; RNA NGS, brain of NHPs): 2.047 fold | Fold enrichment over AAV9 in the spinal cord of NHPs ([1]; RNA NGS, spinal cord of NHPs): 2.374 fold | Fold enrichment over AAV9 in the brain of Mice (BALB/c) (brain [2]; RNA NGS, brain of BALB/c mice): 0.277 fold | Fold enrichment over AAV9 in the brain of Mice (C57Bl/6) (brain [3]; RNA NGS, brain of C57Bl/6 mice): 0.420 fold

GSGAITHMPQNQQT
Fold enrichment over AAV9 in the brain of NHPs ([1]; RNA NGS, brain of NHPs): 1.695 fold | Fold enrichment over AAV9 in the spinal cord of NHPs ([1]; RNA NGS, spinal cord of NHPs): 1.681 fold | Fold enrichment over AAV9 in the brain of Mice (BALB/c) (brain [2]; RNA NGS, brain of BALB/c mice): 0.411 fold | Fold enrichment over AAV9 in the brain of Mice (C57Bl/6) (brain [3]; RNA NGS, brain of C57Bl/6 mice): 0.647 fold

GSGAMPSHGQNQQT
Fold enrichment over AAV9 in the brain of NHPs ([1]; RNA NGS, brain of NHPs): 1.915 fold | Fold enrichment over AAV9 in the spinal cord of NHPs ([1]; RNA NGS, spinal cord of NHPs): 0.000 fold | Fold enrichment over AAV9 in the brain of Mice (BALB/c) (brain [2]; RNA NGS, brain of BALB/c mice): 0.912 fold | Fold enrichment over AAV9 in the brain of Mice (C57Bl/6) (brain [3]; RNA NGS, brain of C57Bl/6 mice): 1.142 fold

GSGASESHRQNQQT
Fold enrichment over AAV9 in the brain of NHPs ([1]; RNA from brain of NHPs, NGS): 1.350 fold | Fold enrichment over AAV9 in the spinal cord of NHPs [1, 4]: 0.850 fold | Fold enrichment over AAV9 in the brain of Mice (BALB/c) (brain [2]; [5]): 0.313 fold | Fold enrichment over AAV9 in the brain of Mice (C57Bl/6) (brain [3]; [6]): 0.325 fold

GSGASRMSIQNQQT
Fold enrichment over AAV9 in the brain of NHPs ([1]; RNA NGS, brain of NHPs): 1.045 fold | Fold enrichment over AAV9 in the spinal cord of NHPs ([1]; RNA NGS, spinal cord of NHPs): 0.111 fold | Fold enrichment over AAV9 in the brain of Mice (BALB/c) (brain [2]; RNA NGS, brain of BALB/c mice): 0.417 fold | Fold enrichment over AAV9 in the brain of Mice (C57Bl/6) (brain [3]; RNA NGS, brain of C57Bl/6 mice): 0.801 fold

GSGAVHLTAQNQQT
Fold enrichment over AAV9 in the brain of NHPs ([1]; RNA from brain of NHPs, NGS): 1.306 fold | Fold enrichment over AAV9 in the spinal cord of NHPs [1, 4]: 1.668 fold | Fold enrichment over AAV9 in the brain of Mice (BALB/c) (brain [2]; [5]): 0.466 fold | Fold enrichment over AAV9 in the brain of Mice (C57Bl/6) (brain [3]; [6]): 0.541 fold

GSGDDSRVGQNQQT
Fold enrichment over AAV9 in the brain of NHPs ([1]; RNA from brain of NHPs, NGS): 1.172 fold | Fold enrichment over AAV9 in the spinal cord of NHPs [1, 4]: 0.191 fold | Fold enrichment over AAV9 in the brain of Mice (BALB/c) (brain [2]; [5]): 0.156 fold | Fold enrichment over AAV9 in the brain of Mice (C57Bl/6) (brain [3]; [6]): 0.466 fold

GSGDLRISPQNQQT
Fold enrichment over AAV9 in the brain of NHPs ([1]; RNA NGS, brain of NHPs): 2.012 fold | Fold enrichment over AAV9 in the spinal cord of NHPs ([1]; RNA NGS, spinal cord of NHPs): 16.207 fold | Fold enrichment over AAV9 in the brain of Mice (BALB/c) (brain [2]; RNA NGS, brain of BALB/c mice): 0.237 fold | Fold enrichment over AAV9 in the brain of Mice (C57Bl/6) (brain [3]; RNA NGS, brain of C57Bl/6 mice): 0.620 fold

GSGDLVVSTQNQQT
Fold enrichment over AAV9 in the brain of NHPs ([1]; RNA NGS, brain of NHPs): 3.874 fold | Fold enrichment over AAV9 in the spinal cord of NHPs ([1]; RNA NGS, spinal cord of NHPs): 1.177 fold | Fold enrichment over AAV9 in the brain of Mice (BALB/c) (brain [2]; RNA NGS, brain of BALB/c mice): 0.273 fold | Fold enrichment over AAV9 in the brain of Mice (C57Bl/6) (brain [3]; RNA NGS, brain of C57Bl/6 mice): 0.411 fold

GSGDRYQTLQNQQT
Fold enrichment over AAV9 in the brain of NHPs ([1]; RNA NGS, brain of NHPs): 1.897 fold | Fold enrichment over AAV9 in the spinal cord of NHPs ([1]; RNA NGS, spinal cord of NHPs): 1.075 fold | Fold enrichment over AAV9 in the brain of Mice (BALB/c) (brain [2]; RNA NGS, brain of BALB/c mice): 0.318 fold | Fold enrichment over AAV9 in the brain of Mice (C57Bl/6) (brain [3]; RNA NGS, brain of C57Bl/6 mice): 0.645 fold

GSGDSITGKQNQQT
Fold enrichment over AAV9 in the brain of NHPs ([1]; RNA NGS, brain of NHPs): 2.112 fold | Fold enrichment over AAV9 in the spinal cord of NHPs ([1]; RNA NGS, spinal cord of NHPs): 1.295 fold | Fold enrichment over AAV9 in the brain of Mice (BALB/c) (brain [2]; RNA NGS, brain of BALB/c mice): 0.306 fold | Fold enrichment over AAV9 in the brain of Mice (C57Bl/6) (brain [3]; RNA NGS, brain of C57Bl/6 mice): 0.793 fold

GSGDTLHMLQNQQT
Fold enrichment over AAV9 in the brain of NHPs ([1]; RNA NGS, brain of NHPs): 3.317 fold | Fold enrichment over AAV9 in the spinal cord of NHPs ([1]; RNA NGS, spinal cord of NHPs): 1.174 fold | Fold enrichment over AAV9 in the brain of Mice (BALB/c) (brain [2]; RNA NGS, brain of BALB/c mice): 0.482 fold | Fold enrichment over AAV9 in the brain of Mice (C57Bl/6) (brain [3]; RNA NGS, brain of C57Bl/6 mice): 0.393 fold
